The values that follow are results of earlier work, collected in US10314836B2, “Quinoline carboxamides for use in the treatment of multiple myeloma” (Active Biotech AB, priority 2014, dated 2019).

The data set concerns castrate resistant prostate cancer (CRPC) metastatic to the bone. The following applies: oral treatment.

On to `COc1cccc2c1c(O)c(C(=O)N(C)c1ccc(C(F)(F)F)cc1)c(=O)n2C` [tasquinimod, 4-hydroxy-5-methoxy-N,1-dimethyl-2-oxo-N-[4-(trifluoromethyl)phenyl]-1,2-dihydroquinoline-3-carboxamide], for which the “effect on overall survival” value is given as “lack a sufficient effect on overall survival”.
